# Where two headings read alike, the source gives them in different places.
# Experiments:
# M. abscessus 103 [1] = settings: mouse, in vivo, 300 mg/kg
# M. massiliense CRM 0019 = assay: MIC, resazurin microtiter assay; format: cell-based; settings: for MIC: Mycobacteroides abscessus
# [2] = system: M. massiliense CIP 108297; assay: MIC, resazurin microtiter assay; format: cell-based; settings: Mycobacteroides abscessus
# M. bolletii ATCC 14472 = assay: MIC, resazurin microtiter assay; format: cell-based; settings: for MIC: Mycobacteroides abscessus
# mycobacteria = assay: organism not typed; format: cell-based; settings: lowest concentration reducing CFU by 90% relative to the inoculum; strain not stated; read-out: MBC90
# [3] = In vivo acute toxicity assay (Maximum Tolerated Dose); design: species or system Balb/C mice; settings: 100, 200 and 300 mg/kg for 3 consecutive days of dosing, gavage, mice
# Procedure: 6-8 week old Balb/C female mice were ordered from Charles River. Mice were rested one to two weeks before dosing. For each dose of compound, 3 mice were utilized. […] Compound was given twice per day for 3 consecutive days by gavage, at 100 μl/mouse. Compounds were prepared the day before or the day of dosing and stored at 4° C. until dosing. The time of dosing was recorded for each mouse. Observations were recorded immediately, at 10 min, 1 hour, 2 hours, 4 hours, and 24 hours after dosing. […] Mice were dosed for three days and on the fourth day mice were observed twice daily for two days, then once daily for five days.
# As an initial in vivo study, the safety of compounds and preliminary pharmacokinetics was assessed in an acute toxicity mouse model (Maximum Tolerated Dose assay, MTD) to evaluate any potential adverse effects and determine a safe dose for mouse efficacy studies. Compounds were tested to ensure safe use in healthy mice prior to any further in vivo testing. […] Novel compounds were generally administered to mice at 40, 75 and 100 mg/kg in a tested formulation, administered on three consecutive days, 3 mice per dose group, in the chosen formulation. […] Mice were observed 10 min, 1, 2, 4 hours after dosing and then daily afterwards. During the observations, humane handling practices and animal welfare regulations were strictly followed. […]
# THP-1 cells = assay: Cytotoxicity assay, THP-1 cell viability (CellTiter-Glo); format: cell-based, human; settings: 3 days
# Procedure: The cytotoxicity of compounds was determined by measuring THP-1 cell viability after 3 days in the presence of test compounds. Compounds were prepared as 10-point serial dilutions in DMSO. The highest concentration of compound tested was 50 μM where compounds were soluble in DMSO at 10 mM. THP-1 cells were cultured in complete RPMI and differentiated into macrophage-like cells using 80 nM PMA overnight at 37° C., 5% CO2. Cells were inoculated into assay plates and cultured for 24 h before compound dilutions were added to a final DMSO concentration of 0.5%. Each run included staurosporine as a control. Assay plates were incubated for 3 days at 37° C., 5% CO2, growth was measured using the CellTiter-Glo® Luminescent Cell Viability Assay (Promega) which uses ATP as an indicator of cell viability. Relative luminescent units (RLU) were measured using a Biotek Synergy 4 plate reader. The dose response curve was fitted using the Levenberg-Marquardt algorithm.
# [4] = system: M. tuberculosis H37Rv mc^26206; assay: microbe, parasite or virus in culture; format: cell-based; settings: for Selectivity Index (TD50/MIC) M. tb H37Rv: TD50 in THP-1 cells
# M. abscessus DCI #21 = assay: MIC, resazurin microtiter assay; format: cell-based; settings: for MIC: Mycobacteroides abscessus, read-out: MIC M. abscessus DCI #21
# panel of mycobacteria = assay: MIC against a panel of mycobacteria (summary ranges); format: cell-based; settings: M. avium and M. xenopi strains of Table 3
# M. chelonae ATCC 35752 = assay: MIC, resazurin microtiter assay; format: cell-based; settings: Mycobacteroides chelonae
# M. abscessus 103 [5] = assay: Acute SCID mouse infection efficacy model; settings: for log10 CFU liver counts on day 12 / log10 CFU spleen counts on day 12: SCID mice i.v. infected with M. abscessus 103, compounds 300 mg/kg PO in 20% cyclodextrin, AMI 150 mg/kg SQ, once daily 8 days
# [6] = system: M. massiliense strain 1513; assay: Metabolic labeling and mycolic acid analysis; settings: 4x and 10x MIC, 16 hr, [1,2-14C]acetate labeling, TLC
# Procedure: Cultures of M. massiliense 1513 grown to mid log-phase in Mueller-Hinton II broth were incubated with different concentrations of inhibitors for 16 hr at 37° C. with shaking. 0.5 μCi/mL [1,2-^14C]acetic acid (specific activity, 52 Ci/mol, PerkinElmer Inc.) was added at the same time as the inhibitors. Total lipids and cell wall-bound mycolic acid methyl esters were prepared from treated and untreated cells and analyzed by TLC as described in Grzegorzewicz et al, Nature Chemical Biology, 2012, 8:334+341.
# P. aeruginosa PAO-1 = assay: MIC, resazurin microtiter assay; format: cell-based, Pseudomonas aeruginosa; settings: for MIC: Pseudomonas aeruginosa
# M. abscessus 103 [7] = assay: MIC/MBC by microbroth dilution (MH or 7H9 broth); format: cell-based, M. abscessus subsp. bolletii
# M. xenopi WT = assay: MIC, resazurin microtiter assay; format: cell-based; settings: Mycobacterium xenopi, read-out: MIC M. xenopi WT
# M. abscessus 1513 = assay: MIC/MBC by microbroth dilution (MH or 7H9 broth); format: cell-based, M. abscessus subsp. abscessus
# M. abscessus ATCC 19977 = assay: MIC, resazurin microtiter assay; format: cell-based; settings: Mycobacteroides abscessus
# S. aureus ATCC25923 = assay: MIC, resazurin microtiter assay; format: cell-based; settings: Staphylococcus aureus
# M. intracellulare 1956 = assay: MIC, resazurin microtiter assay; format: cell-based; settings: read-out: MIC M. avium Intracellulare 1956
# [8] = Dose response pharmacokinetics, plasma concentration by LC-MS/MS; format: in vivo, BALB/c mice; settings: single oral dose 100 and 200 mg kg^-1, 2 and 4 h, mice
# Procedure: P.O. dosing at 100, 200 and 300 mg kg^−1 was administered; after administration, blood was collected at 2 and 4 hour time points for quantification. Plasma concentration of the compounds 5 and 25 was determined using liquid chromatography tandem mass spectrometry. Data are presented as mean±SD.
# Female BALB/c mice were given a dose of compounds 5 or 25 at 100, 200 and 300 mg kg′ by oral gavage in a volume of 0.2 mL. At 2 and 4 hours after compound administration, animals were euthanized and cardiac blood (approximately 0.7 mL) was collected. Plasma was separated using centrifugation at 12,000 g for 20 min at 4° C. and stored at […]. Concentrations of compounds 5 and 25 in plasma were analyzed with LC-tandem MS (LC-MS/MS, AB SCIEX QTRAP 5500 system) with warfarin as internal standard. MS detection of mass transitions 295.2/135.2 (Compound 5), 299.2/146.1 (Compound 25) and 309.1/163.0 (Warfarin) was carried out. Concentration calculation was performed with MultiQuant Software (Version 2.1, AB SCIEX). The pharmacokinetic profile of the test compound was analyzed from plasma concentration-time data after oral administration.
# M. smegmatis mc^2155 = assay: MIC, resazurin microtiter assay; format: cell-based; settings: Mycolicibacterium smegmatis
# M. avium 104 = assay: MIC, resazurin microtiter assay; format: cell-based; settings: Mycobacterium avium, 104, read-out: MIC M. avium 104
# [9] = infected SCID mice, daily 300 mg/kg in 20% cyclodextrin
smiles,measurement,setting,value
"Cc1cc(C)c2cc(C(=O)NC3CCCCCCC3)[nH]c2c1 [Compound 25, N-cyclooctyl-4,6-dimethyl-1H-indole-2-carboxamide]",Survival until the Day 12 endpoint,M. abscessus 103 [1],all animals survived
same,Weight loss,M. abscessus 103 [1],didn't demonstrate any significant weight loss
same,MIC,"M. massiliense CRM 0019; CRM0019, Mueller Hinton II, read-out: MIC M. massiliense CRM 0019",0.0078 µg/mL
same,MIC,"[2]; CIP108297, Mueller Hinton II, read-out: MIC M. massiliense CIP 108297",0.031 µg/mL
same,MIC,"M. bolletii ATCC 14472; ATCC14472, Mueller Hinton II, read-out: MIC M. bolletii ATCC 14472",0.0039 µg/mL
same,MBC,mycobacteria,0.015 µg/mL
same,"Tolerability (acute toxicity, MTD)",[3],well tolerated
same,TD50,THP-1 cells,>14.9 µg/mL
same,Selectivity Index (TD50/MIC) M. tb H37Rv,[4],>764
same,MIC,M. abscessus DCI #21; Mueller Hinton II,0.0078 µg/mL
same,MIC range in MAC panel,panel of mycobacteria,0.25 to 1 µg/mL
same,MIC,"M. chelonae ATCC 35752; ATCC35752, Mueller Hinton II, read-out: MIC M. chelonae ATCC 35752",0.063 µg/mL
same,log10 CFU liver counts on day 12,M. abscessus 103 [5],4.90±0.49 log10 CFU
same,log10 CFU spleen counts on day 12,M. abscessus 103 [5],2.91±0.45 log10 CFU
same,TMM build-up and mycolic acid transfer onto arabinogalactan and TDM,[6],concentration-dependent build-up of TMM
same,MIC P. aeruginosa PAO-1,P. aeruginosa PAO-1; Mueller Hinton II,inactive
same,MIC,"P. aeruginosa PAO-1; PAO1, Mueller Hinton II, read-out: MIC P. aeruginosa PAO-1",> 160 µg/mL
same,MBC,"M. abscessus 103 [7]; Mycobacteroides abscessus, 103; MH broth; read-out: MBC99 M. abscessus subsp. bolletii 103",64 µg/mL
same,MIC,"M. abscessus 103 [7]; Mycobacteroides abscessus, 103; read-out: MIC M. abscessus 103, 7H9 Broth",> 64 µg/mL
same,MIC,"M. abscessus 103 [7]; Mycobacteroides abscessus, 103; read-out: MIC M. abscessus 103, MH Broth",16 µg/mL
same,MIC,M. xenopi WT; Mueller Hinton II,0.25 µg/mL
same,MBC,"M. abscessus 1513; Mycobacteroides abscessus, 1513; MH broth; read-out: MBC99 M. abscessus subsp. abscessus 1513",64 µg/mL
same,MIC,"M. abscessus 1513; Mycobacteroides abscessus, 1513; read-out: MIC M. abscessus 1513, 7H9 Broth",> 64 µg/mL
same,MIC,"M. abscessus 1513; Mycobacteroides abscessus, 1513; read-out: MIC M. abscessus 1513, MH Broth",16 µg/mL
same,MIC,"M. abscessus ATCC 19977; ATCC19977, Mueller Hinton II, read-out: MIC M. abscessus ATCC 19977",0.063 µg/mL
same,MIC,"S. aureus ATCC25923; ATCC25923, Mueller Hinton II, read-out: MIC S. aureus ATCC25923",> 160 µg/mL
same,MIC,M. intracellulare 1956; Mueller Hinton II,1 µg/mL
same,Blood concentration compared to compound 5,[8],lower blood concentration
same,MIC,"M. smegmatis mc^2155; MC^2155, 7H9-ADC-0.05% Tween 80, read-out: MIC M. smeg. mc^2155",0.313 to 0.625 µg/mL
"O=C(NC12CC3CC(CC(C3)C1)C2)c1cc2ccccc2[nH]1 [Compound 5, N-(1-adamantyl)-1H-indole-2-carboxamide]",MIC,"M. massiliense CRM 0019; CRM0019, read-out: MIC M. massiliense CRM 0019",0.25 µg/mL
same,Selectivity Index (TD50/MIC) M. Massiliense CRM0019,M. massiliense CRM 0019; TD50 in THP-1 cells,>58
same,MIC,"[2]; CIP108297, read-out: MIC M. massiliense CIP 108297",0.5 µg/mL
same,MIC,"M. bolletii ATCC 14472; ATCC14472, read-out: MIC M. bolletii ATCC 14472",0.25 µg/mL
same,Selectivity Index (TD50/MIC) M. bolletii,M. bolletii ATCC 14472; TD50 in THP-1 cells,>58
same,"Tolerability (acute toxicity, MTD)",[3],well tolerated
same,TD50,THP-1 cells,>14.7 µg/mL
same,MIC,"[4]; Mycobacterium tuberculosis, H37RV, read-out: MIC M. tb H37 Rv (mc2-6206)",0.2 µg/mL
same,Selectivity Index (TD50/MIC) M. tb H37Rv,[4],>73
same,MIC,M. avium 104,8 µg/mL
same,MIC,M. abscessus DCI #21,0.25 µg/mL
same,Selectivity Index (TD50/MIC) M. abscessus DCI #21,M. abscessus DCI #21; TD50 in THP-1 cells,>58
same,MIC,"M. chelonae ATCC 35752; ATCC35752, read-out: MIC M. chelonae ATCC 35752",0.25 µg/mL
same,log10 CFU liver counts on day 12,M. abscessus 103 [5],5.30±0.23 log10 CFU
same,log10 CFU spleen counts on day 12,M. abscessus 103 [5],3.79±0.40 log10 CFU
same,Survival until the Day 12 endpoint,M. abscessus 103 [5]; [9],all animals survived
same,Weight loss,M. abscessus 103 [5]; [9],didn't demonstrate any significant weight loss
same,TMM build-up and mycolic acid transfer onto arabinogalactan and TDM,[6],concentration-dependent build-up of TMM
same,MIC P. aeruginosa PAO-1,P. aeruginosa PAO-1; Mueller Hinton II,inactive
same,MIC,"P. aeruginosa PAO-1; PAO1, read-out: MIC P. aeruginosa PAO-1",> 160 µg/mL
same,MIC,"M. abscessus 103 [7]; Mycobacteroides abscessus, 103, read-out: MIC M. abscessus 103, 7H9 Broth",> 64 µg/mL
same,MIC,"M. abscessus 103 [7]; Mycobacteroides abscessus, 103, read-out: MIC M. abscessus 103, MH Broth",16 µg/mL
same,MIC,M. xenopi WT,0.5 to 1 µg/mL
same,MIC,"M. abscessus 1513; Mycobacteroides abscessus, 1513, read-out: MIC M. abscessus 1513, 7H9 Broth",> 64 µg/mL
same,MIC,"M. abscessus 1513; Mycobacteroides abscessus, 1513, read-out: MIC M. abscessus 1513, MH Broth",32 µg/mL
same,MIC,"M. abscessus ATCC 19977; ATCC19977, read-out: MIC M. abscessus ATCC 19977",0.25 µg/mL
same,MIC,"S. aureus ATCC25923; ATCC25923, read-out: MIC S. aureus ATCC25923",> 160 µg/mL
same,MIC,M. intracellulare 1956,8 µg/mL
same,MIC,"M. smegmatis mc^2155; MC^2155, read-out: MIC M. smeg. mc^2155",1.56 µg/mL
